Among the data in patent publication US20110130380A1, “Heteroaryl Kinase Inhibitors” (priority 2009, published 2011) are IC50 values, retold here.

SMILES strings stand for the structures. pIC50: −log10 of the molar value.

The target of the assay is Cdk9/cyclinT1 (Homo sapiens, UniProt P50750). The assay is described as follows: Cdk9/cyclinT1 IMAP Protocol (fluorescence polarization kinase assay). To be noted: Cdk9_cyclinT1_IC50, Table V; generated using one of the two Cdk9/cyclinT1 assays (IMAP or Alpha Screen), not stated which; ATP 6 uM.
Chain of Cdk9/cyclinT1 (P50750 whole entry): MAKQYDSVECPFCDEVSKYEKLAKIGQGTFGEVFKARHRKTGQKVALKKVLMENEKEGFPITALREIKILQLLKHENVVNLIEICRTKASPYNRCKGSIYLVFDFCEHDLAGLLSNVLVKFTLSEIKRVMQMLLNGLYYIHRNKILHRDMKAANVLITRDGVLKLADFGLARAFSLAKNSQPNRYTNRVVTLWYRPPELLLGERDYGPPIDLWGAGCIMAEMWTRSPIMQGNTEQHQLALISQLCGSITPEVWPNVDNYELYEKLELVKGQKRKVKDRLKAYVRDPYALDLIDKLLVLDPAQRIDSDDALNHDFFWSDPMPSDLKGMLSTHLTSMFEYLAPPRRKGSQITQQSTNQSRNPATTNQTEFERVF
Chain of Cdk9/cyclinT1 (O60563 whole entry partner): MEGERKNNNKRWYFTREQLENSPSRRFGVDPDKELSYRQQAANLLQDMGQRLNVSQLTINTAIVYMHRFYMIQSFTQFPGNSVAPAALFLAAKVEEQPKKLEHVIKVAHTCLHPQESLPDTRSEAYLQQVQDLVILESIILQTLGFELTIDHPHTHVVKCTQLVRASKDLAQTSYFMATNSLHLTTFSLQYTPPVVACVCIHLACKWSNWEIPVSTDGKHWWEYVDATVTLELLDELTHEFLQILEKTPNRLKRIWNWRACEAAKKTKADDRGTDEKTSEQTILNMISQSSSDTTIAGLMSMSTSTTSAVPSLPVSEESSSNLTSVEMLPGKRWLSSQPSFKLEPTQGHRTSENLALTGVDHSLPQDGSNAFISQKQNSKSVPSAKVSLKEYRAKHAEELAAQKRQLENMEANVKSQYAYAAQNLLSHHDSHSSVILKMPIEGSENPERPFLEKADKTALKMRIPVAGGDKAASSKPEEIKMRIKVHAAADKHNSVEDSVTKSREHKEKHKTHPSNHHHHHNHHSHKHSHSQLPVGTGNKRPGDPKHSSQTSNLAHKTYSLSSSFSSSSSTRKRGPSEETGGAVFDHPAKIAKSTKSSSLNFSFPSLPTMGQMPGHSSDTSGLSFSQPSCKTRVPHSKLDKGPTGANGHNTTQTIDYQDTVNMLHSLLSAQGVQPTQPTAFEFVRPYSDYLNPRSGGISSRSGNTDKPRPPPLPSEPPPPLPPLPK

Compound `O=C(Nc1cc(-c2cccc(NCC3CCOCC3)n2)c(Cl)cn1)C1CNC1` [Example 119, Azetidine-3-carboxylic acid {5′-chloro-6-[(tetrahydro-pyran-4-ylmethyl)-amino]-[2,4′]bipyridinyl-2′-yl}-amide] showed a negative logarithm of the IC50 (pIC50) of 7.85. Turning to `CC1(C)CC(CNc2cccc(-c3cc(NC(=O)[C@H]4CNCCO4)ncc3Cl)n2)CCO1` (stereo partly drawn) [Example 120, (R)-Morpholine-2-carboxylic acid {5′-chloro-6-[(2,2-dimethyl-tetrahydro-pyran-4-ylmethyl)-amino]-[2,4′]bipyridinyl-2′-yl}-amide], the negative-log IC50 (pIC50) is > 8.10.

Take `O=C(Nc1cc(-c2cccc(NCC3CCOCC3)n2)c(Cl)cn1)[C@H]1CNC[C@H]1O` [Example 121, (3S,4S)-4-hydroxy-pyrrolidine-3-carboxylic acid {5′-chloro-6-[(tetrahydro-pyran-4-ylmethyl)-amino]-[2,4′]bipyridinyl-2′-yl}-amide]: the pIC50 is 6.87. `O=C(Nc1cc(-c2cccc(NCC3CCOCC3)n2)c(Cl)cn1)[C@H]1CNC[C@@H]1O` [Example 122, (3S,4R)-4-Hydroxy-pyrrolidine-3-carboxylic acid {5′-chloro-6-[(tetrahydro-pyran-4-ylmethyl)-amino]-[2,4′]bipyridinyl-2′-yl}-amide] had a pIC50 of 7.82. As to `O=C(Nc1cc(-c2nc(NCC3CCOCC3)ccc2Cl)c(F)cn1)[C@@H]1CCCNC1` [Example 123, (R)-Piperidine-3-carboxylic acid {3-chloro-5′-fluoro-6-[(tetrahydro-pyran-4-ylmethyl)-amino]-[2,4′]bipyridinyl-2′-yl}-amide], the pIC50 was > 8.10.

Regarding `O=C(Nc1cc(-c2nc(NCC3CCOCC3)ccc2Cl)c(F)cn1)[C@H]1CNCCO1` [Example 124, (R)-Morpholine-2-carboxylic acid {3-chloro-5′-fluoro-6-[(tetrahydro-pyran-4-ylmethyl)-amino]-[2,4′]bipyridinyl-2′-yl}-amide], the negative logarithm of the IC50 (pIC50) was 7.52. Regarding `CC1(C)CC(CNc2ccc(Cl)c(-c3cc(NC(=O)[C@@H]4CCCNC4)ncc3Cl)n2)CCO1` (stereo partly drawn) [Example 132, (R)-Piperidine-3-carboxylic acid {3,5′-dichloro-6-[(2,2-dimethyl-tetrahydro-pyran-4-ylmethyl)-amino]-[2,4′]bipyridinyl-2′-yl}-amide], the pIC50 is > 8.10. Consider `CC1(C)CC(CNc2ccc(Cl)c(-c3cc(NC(=O)[C@H]4CNCCO4)ncc3Cl)n2)CCO1` (stereo partly drawn) [Example 133, (R)-Morpholine-2-carboxylic acid {3,5′-dichloro-6-[(2,2-dimethyl-tetrahydro-pyran-4-ylmethyl)-amino]-[2,4′]bipyridinyl-2′-yl}-amide], for which the pIC50 is > 8.10. Turning to `O=C(Nc1cc(-c2nc(NCC3CCOCC3)c(Cl)cc2Cl)c(Cl)cn1)[C@@H]1CCCNC1` [Example 134, (R)-Piperidine-3-carboxylic acid {3,5,5′-trichloro-6-[(tetrahydro-pyran-4-ylmethyl)-amino]-[2,4′]bipyridinyl-2′-yl}-amide], the pIC50 was > 8.10. The compound `O=C(Nc1cc(-c2ccc(F)c(NCC3CCOCC3)n2)c(Cl)cn1)[C@@H]1CCCNC1` [Example 135, (R)-Piperidine-3-carboxylic acid {5′-chloro-5-fluoro-6-[(tetrahydro-pyran-4-ylmethyl)-amino]-[2,4′]bipyridinyl-2′-yl}-amide] gave a pIC50 of 9.00.

As for `C[C@H](Nc1cccc(-c2cc(NC(=O)[C@@H]3CCCNC3)ncc2Cl)n1)C1CCOCC1` [Example 136, (R)-Piperidine-3-carboxylic acid {5′-chloro-6-[(S)-1-(tetrahydro-pyran-4-yl)-ethylamino]-[2,4′]bipyridinyl-2′-yl}-amide], the pIC50 is 7.89. `C[C@@H](Nc1cccc(-c2cc(NC(=O)[C@@H]3CCCNC3)ncc2Cl)n1)C1CCOCC1` [Example 137, (R)-Piperidine-3-carboxylic acid {5′-chloro-6-[(R)-1-(tetrahydro-pyran-4-yl)-ethylamino]-[2,4′]bipyridinyl-2′-yl}-amide] showed a pIC50 of 7.96. Turning to `CO[C@H]1CNC[C@@H]1C(=O)Nc1cc(-c2cccc(NCC3CCOCC3)n2)c(Cl)cn1` [Example 138, (3S,4R)-4-Methoxy-pyrrolidine-3-carboxylic acid {5′-chloro-6-[(tetrahydro-pyran-4-ylmethyl)-amino]-[2,4′]bipyridinyl-2′-yl}-amide], the pIC50 was > 8.10.

With `CC(C)S(=O)(=O)N1CCC[C@H](C(=O)Nc2cc(-c3nc(NCC4CCOC(C)(C)C4)ccc3Cl)c(Cl)cn2)C1` (stereo partly drawn) [Example 139, (S)-1-(Propane-2-sulfonyl)-piperidine-3-carboxylic acid {3,5′-dichloro-6-[(2,2-dimethyl-tetrahydro-pyran-4-ylmethyl)-amino]-[2,4′]bipyridinyl-2′-yl}-amide], the pIC50 is > 8.10. Take `COC(=O)N1CCC[C@H](C(=O)Nc2cc(-c3nc(NCC4CCOC(C)(C)C4)ccc3Cl)c(Cl)cn2)C1` (stereo partly drawn) [Example 140, (S)-3-{3,5′-Dichloro-6-[(2,2-dimethyl-tetrahydro-pyran-4-ylmethyl)-amino]-[2,4′]bipyridinyl-2′-ylcarbamoyl}-piperidine-1-carboxylic acid methyl ester]: the pIC50 was > 8.10. With `O=C(Nc1cc(-c2ccc(F)c(NCC3CCOCC3)n2)c(Cl)cn1)[C@@H]1CCNC1` [Example 143, (R)-Pyrrolidine-3-carboxylic acid {5′-chloro-5-fluoro-6-[(tetrahydro-pyran-4-ylmethyl)-amino]-[2,4′]bipyridinyl-2′-yl}-amide], the pIC50 was 9.00. To `CO[C@H]1CNC[C@@H]1C(=O)Nc1cc(-c2ccc(F)c(NCC3CCOCC3)n2)c(Cl)cn1` [Example 144, (3S,4R)-4-Methoxy-pyrrolidine-3-carboxylic acid {5′-chloro-5-fluoro-6-[(tetrahydro-pyran-4-ylmethyl)-amino]-[2,4′]bipyridinyl-2′-yl}-amide] belongs 9.00. `CC1(C(=O)Nc2cc(-c3cccc(NCC4CCOCC4)n3)c(Cl)cn2)CNCCO1` (centres unmarked) [Example 145, 2-Methyl-morpholine-2-carboxylic acid {5′-chloro-6-[(tetrahydro-pyran-4-ylmethyl)-amino]-[2,4′]bipyridinyl-2′-yl}-amide] gave a pIC50 of 6.11. To `CO[C@H]1CNC[C@@H]1C(=O)Nc1cc(-c2nc(NCC3CCOCC3)ccc2Cl)c(Cl)cn1` [Example 150, (3S,4R)-4-Methoxy-pyrrolidine-3-carboxylic acid {3,5′-dichloro-6-[(tetrahydro-pyran-4-ylmethyl)-amino]-[2,4′]bipyridinyl-2′-yl}-amide] belongs > 8.10; to `CO[C@H]1CNC[C@@H]1C(=O)Nc1cc(-c2cccc(NCC3CCOC(C)(C)C3)n2)c(Cl)cn1` (stereo partly drawn) [Example 151, (3S,4R)-4-Methoxy-pyrrolidine-3-carboxylic acid {5′-chloro-6-[(2,2-dimethyl-tetrahydro-pyran-4-ylmethyl)-amino]-[2,4′]bipyridinyl-2′-yl}-amide], > 8.10; to `COC(=O)N1CCC[C@H](C(=O)Nc2cc(-c3cccc(NCC4CCS(=O)(=O)CC4)n3)c(Cl)cn2)C1` [Example 152, (S)-3-{5′-Chloro-6-[(1′,1′-dioxo-hexahydro-1-thiopyran-4-ylmethyl)-amino]-[2,4′]bipyridinyl-2′-ylcarbamoyl}-piperidine-1-carboxylic acid methyl ester], > 8.10. As for `COC(=O)N1CCC[C@H](C(=O)Nc2cc(-c3nc(N[C@H](C)C4CCOCC4)ccc3Cl)c(Cl)cn2)C1` [Example 153, (S)-3-{3,5′-Dichloro-6-[(R)-1-(tetrahydro-pyran-4-yl)-ethylamino]-[2,4′]bipyridinyl-2′-ylcarbamoyl}-piperidine-1-carboxylic acid methyl ester], the pIC50 is 7.59. As for `COC(=O)N1CCC[C@H](C(=O)Nc2cc(-c3nc(N[C@@H](C)C4CCOCC4)ccc3Cl)c(Cl)cn2)C1` [Example 154, (S)-3-{3,5′-Dichloro-6-[(S)-1-(tetrahydro-pyran-4-yl)-ethylamino]-[2,4′]bipyridinyl-2′-ylcarbamoyl}-piperidine-1-carboxylic acid methyl ester], the negative-log IC50 (pIC50) was 7.82. To `O=C(Nc1cc(-c2nc(NCC3CCOCC3)ccc2F)c(Cl)cn1)[C@@H]1CCCNC1` [Example 157, (R)-Piperidine-3-carboxylic acid {5′-chloro-3-fluoro-6-[(tetrahydro-pyran-4-ylmethyl)-amino]-[2,4′]bipyridinyl-2′-yl}-amide] belongs 9.00; to `O=C(Nc1cc(-c2nc(NCC3CCOCC3)ccc2F)c(Cl)cn1)[C@H]1CNCCO1` [Example 158, (R)-Morpholine-2-carboxylic acid {5′-chloro-3-fluoro-6-[(tetrahydro-pyran-4-ylmethyl)-amino]-[2,4′]bipyridinyl-2′-yl}-amide], 8.30; to `C[C@@H]1CC(CNc2cccc(-c3cc(NC(=O)[C@@H]4CCCNC4)ncc3Cl)n2)C[C@H](C)O1` (stereo partly drawn) [Example 159, (R)-Piperidine-3-carboxylic acid {5′-chloro-6-[((2R,6S)-2,6-dimethyl-tetrahydro-pyran-4-ylmethyl)-amino]-[2,4′]bipyridinyl-2′-yl}-amide], 9.00. Regarding `O=C(Nc1cc(-c2nc(NCC3CCOCC3)ccc2Cl)ccn1)[C@@H]1CCCNC1` [Example 167, (R)-Piperidine-3-carboxylic acid {3-chloro-6-[(tetrahydro-pyran-4-ylmethyl)-amino]-[2,4′]bipyridinyl-2′-yl}-amide], the negative-log IC50 (pIC50) was 8.40. `O=C(Nc1cc(-c2cccc(NCC3CCOCC3)n2)c(Cl)cn1)C1CNCC(F)C1` (centres unmarked) [Example 168, 5-Fluoro-piperidine-3-carboxylic acid {5′-chloro-6-[(tetrahydro-pyran-4-ylmethyl)-amino]-[2,4′]bipyridinyl-2′-yl}-amide]: the pIC50 is 8.22. Under `C[C@@H]1CC(CNc2cccc(-c3cc(NC(=O)[C@H]4CNCCO4)ncc3Cl)n2)C[C@H](C)O1` (stereo partly drawn) [Example 169, (R)-Morpholine-2-carboxylic acid {5′-chloro-6-[((2R,6S)-2,6-dimethyl-tetrahydro-pyran-4-ylmethyl)-amino]-[2,4′]bipyridinyl-2′-yl}-amide] stands 7.80.
